Experimental data as given in patent publication US20220380829A1, “Method of Diagonosizing Pathogens and their Antimicrobial Susceptibility” (HANGZHOU DIAN MEDICAL LABORATORY CO., LTD., priority 2019, published 2022).

Legend:
Streptococcus pneumoniae = experiment: VITEK2 Compact AST (AST-GP68 cards) with penicillin disc diffusion, gold standard culture-based AST; type: cell-based
Method: (§1) Step 1. Drug susceptibility verification: The Streptococcus pneumoniae isolates were tested for drug susceptibility using bioMérieux Vitek2 Compact System and AST-GP68 cards, and specifically, the susceptibility of penicillin was double checked by disc diffusion method (OXOID, CT0043B), and the combined results were used as the gold standard (culture-based AST).
as §1, with “Sample collection and drug” for “Drug”, “48 clinical” for “The”, “pneumoniae isolates were collected from 18 hospitals across china in a period between May 2017 and October 2019. All” for “pneumoniae”, “card,” for “cards,”

Enterococcus faecalis = experiment: VITEK2 Compact AST (AST-P639 cards), gold standard culture-based AST; type: cell-based
[1] = Resistance profile classification A
[2] = Resistance profile classification B
[3] = Resistance profile classification C
[4] = Resistance profile classification D
[5] = Resistance profile classification G
[6] = Resistance profile classification H
[7] = Resistance profile classification I
[8] = Resistance profile classification J
[9] = Resistance profile classification S
[10] = Resistance profile classification F (first line so labelled, r12)
[11] = Resistance profile classification F (second line so labelled, r13)
[12] = Resistance profile classification K
[13] = Resistance profile classification L
[14] = Resistance profile classification M
Also: key: ‘R’ indicates drug-resistant; ‘S’ indicates drug-susceptible.

Row | Compound | Susceptibility of Emterococcus faecalis to 11 antibacterial drugs (Enterococcus faecalis; [1]) | Susceptibility of Emterococcus faecalis to 11 antibacterial drugs (Enterococcus faecalis; [2]) | Susceptibility of Emterococcus faecalis to 11 antibacterial drugs (Enterococcus faecalis; [3]) | Susceptibility of Emterococcus faecalis to 11 antibacterial drugs (Enterococcus faecalis; [4]) | Susceptibility of Emterococcus faecalis to 11 antibacterial drugs (Enterococcus faecalis; [10]) | Susceptibility of Emterococcus faecalis to 11 antibacterial drugs (Enterococcus faecalis; [11]) | Susceptibility of Emterococcus faecalis to 11 antibacterial drugs (Enterococcus faecalis; [5]) | Susceptibility of Emterococcus faecalis to 11 antibacterial drugs (Enterococcus faecalis; [6]) | Susceptibility of Emterococcus faecalis to 11 antibacterial drugs (Enterococcus faecalis; [7]) | Susceptibility of Emterococcus faecalis to 11 antibacterial drugs (Enterococcus faecalis; [8]) | Susceptibility of Emterococcus faecalis to 11 antibacterial drugs (Enterococcus faecalis; [12]) | Susceptibility of Emterococcus faecalis to 11 antibacterial drugs (Enterococcus faecalis; [13]) | Susceptibility of Emterococcus faecalis to 11 antibacterial drugs (Enterococcus faecalis; [14]) | Susceptibility of Emterococcus faecalis to 11 antibacterial drugs (Enterococcus faecalis; [9]) | Blind 1 by AST (Streptococcus pneumoniae) | blind 2 by AST (Streptococcus pneumoniae) | further results
1 | CC1(C)S[C@@H]2[C@H](NC(=O)[C@H](N)c3ccccc3)C(=O)N2[C@H]1C(=O)O [ampicillin] | R | R | R | R | R | R | S | S | S | S | S | S | S | S | – | – | Susceptibility of Streptococcus pneumoniae to 14 antibacterial drugs (Streptococcus pneumoniae; [1]): R; Susceptibility of Streptococcus pneumoniae to 14 antibacterial drugs (Streptococcus pneumoniae; [2]): R; Susceptibility of Streptococcus pneumoniae to 14 antibacterial drugs (Streptococcus pneumoniae; [3]): R; Susceptibility of Streptococcus pneumoniae to 14 antibacterial drugs (Streptococcus pneumoniae; [4]): R; Susceptibility of Streptococcus pneumoniae to 14 antibacterial drugs (Streptococcus pneumoniae; Resistance profile classification E): R; Susceptibility of Streptococcus pneumoniae to 14 antibacterial drugs (Streptococcus pneumoniae; Resistance profile classification F): R; Susceptibility of Streptococcus pneumoniae to 14 antibacterial drugs (Streptococcus pneumoniae; [5]): S; Susceptibility of Streptococcus pneumoniae to 14 antibacterial drugs (Streptococcus pneumoniae; [6]): S; Susceptibility of Streptococcus pneumoniae to 14 antibacterial drugs (Streptococcus pneumoniae; [7]): S; Susceptibility of Streptococcus pneumoniae to 14 antibacterial drugs (Streptococcus pneumoniae; [8]): S; Susceptibility of Streptococcus pneumoniae to 14 antibacterial drugs (Streptococcus pneumoniae; [9]): S
2 | CO/N=C(\C(=O)N[C@@H]1C(=O)N2C(C(=O)[O-])=C(C[N+]3(C)CCCC3)CS[C@H]12)c1csc(N)n1 [cefepime] | – | – | – | – | – | – | – | – | – | – | – | – | – | – | S | R | –
3 | CN(C)c1cc(NC(=O)CNC(C)(C)C)c(O)c2c1C[C@H]1C[C@H]3[C@H](N(C)C)C(O)=C(C(N)=O)C(=O)[C@@]3(O)C(O)=C1C2=O [tigecycline] | S | S | S | S | S | S | S | S | S | S | S | S | – | S | – | – | –
4 | CC(=O)NC[C@H]1CN(c2ccc(N3CCOCC3)c(F)c2)C(=O)O1 [linezolid] | S | S | S | S | – | – | S | S | S | S | S | S | S | S | S | S | –
5 | CO/N=C(\C(=O)N[C@@H]1C(=O)N2C(C(=O)O)=C(COC(C)=O)CS[C@H]12)c1csc(N)n1 [cefotaxime] | – | – | – | – | – | – | – | – | – | – | – | – | – | – | S | R | –
6 | CCCCCCCCCC(=O)N[C@@H](Cc1c[nH]c2ccccc12)C(=O)N[C@H](CC(N)=O)C(=O)N[C@@H](CC(=O)O)C(=O)N[C@@H]1C(=O)NCC(=O)N[C@@H](CCCN)C(=O)N[C@@H](CC(=O)O)C(=O)N[C@H](C)C(=O)N[C@@H](CC(=O)O)C(=O)NCC(=O)N[C@H](CO)C(=O)N[C@@H]([C@H](C)CC(=O)O)C(=O)N[C@@H](CC(=O)c2ccccc2N)C(=O)O[C@@H]1C [daptomycin] | S | S | S | S | S | S | S | S | S | S | S | S | S | S | – | – | –
7 | C[C@@H](O)[C@H]1C(=O)N2C(C(=O)O)=C(S[C@@H]3CN[C@H](C(=O)Nc4cccc(C(=O)O)c4)C3)[C@H](C)[C@H]12 [ertapenem] | – | – | – | – | – | – | – | – | – | – | – | – | – | – | S | S | –
8 | C[C@H]1COc2c(N3CCN(C)CC3)c(F)cc3c(=O)c(C(=O)O)cn1c23 [levofloxacin] | R | R | R | R | S | S | R | S | R | S | R | R | S | 8 | S | S | –
9 | COc1c(N2C[C@@H]3CCCN[C@@H]3C2)c(F)cc2c(=O)c(C(=O)O)cn(C3CC3)c12 [moxifloxacin] | – | – | – | – | – | – | – | – | – | – | – | – | – | – | S | S | –
10 | CO/N=C(\C(=O)N[C@@H]1C(=O)N2C(C(=O)O)=C(CSc3nc(=O)c(=O)[nH]n3C)CS[C@H]12)c1csc(N)n1 [ceftriaxone] | – | – | – | – | – | – | – | – | – | – | – | – | – | – | S | R | –
11 | CN[C@H](CC(C)C)C(=O)N[C@H]1C(=O)N[C@@H](CC(N)=O)C(=O)N[C@H]2C(=O)N[C@H]3C(=O)N[C@H](C(=O)N[C@H](C(=O)O)c4cc(O)cc(O)c4-c4cc3ccc4O)[C@H](O)c3ccc(c(Cl)c3)Oc3cc2cc(c3O[C@@H]2O[C@H](CO)[C@@H](O)[C@H](O)[C@H]2O[C@H]2C[C@](C)(N)[C@H](O)[C@H](C)O2)Oc2ccc(cc2Cl)[C@H]1O [vancomycin] | S | S | S | S | S | S | S | S | S | S | S | S | S | S | S | S | –
12 | C[C@@H](O)[C@H]1C(=O)N2C(C(=O)O)=C(S[C@@H]3CN[C@H](C(=O)N(C)C)C3)[C@H](C)[C@H]12 [meropenem] | – | – | – | – | – | – | – | – | – | – | – | – | – | – | S | S | –
13 | high-level gentamicin [HLAR] | R | R | S | S | S | S | R | R | R | S | S | S | S | S | – | – | –
